Experimental data as given in PubChem BioAssay (NCI).
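Growth conditions: 96-well plates. Treatment: test compound, 48 hours, 5 concentrations. Analysis: linear interpolation between bracketing concentrations; unreached endpoints set to highest concentration. TGI is the concentration that stops growth completely.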

Key:
Test in all cases: inhibition of tumour cell growth, NCI panel, 48 h
[1] = test system: 786-0 renal
[2] = test system: A498 renal
[3] = test system: A549 NSCLC
[4] = test system: ACHN renal
[5] = test system: BT-549 breast
[6] = test system: CAKI-1 renal
[7] = test system: CCRF-CEM leukemia
[8] = test system: COLO 205 colon
[9] = test system: DLD-1 colon
[10] = test system: DMS 273 small cell lung
[11] = test system: DU-145 prostate
[12] = test system: EKVX NSCLC
[13] = test system: HCC-2998 colon
[14] = test system: HCT-116 colon
[15] = test system: HCT-15 colon
[16] = test system: HL-60(TB) leukemia
[17] = test system: HOP-18 NSCLC
[18] = test system: HOP-62 NSCLC
[19] = test system: HOP-92 NSCLC
[20] = test system: HS 578T breast
[21] = test system: HT29 colon
[22] = test system: IGROV1 ovarian
[23] = test system: K-562 leukemia
[24] = test system: KM12 colon
[25] = test system: KM20L2 colon
[26] = test system: LOX IMVI melanoma
[27] = test system: LXFL 529 NSCLC
[28] = test system: M14 melanoma
[29] = test system: M19-MEL melanoma
[30] = test system: MALME-3M melanoma
[31] = test system: MCF7 breast
[32] = test system: MDA-MB-231 breast
[33] = test system: MDA-MB-435
[34] = test system: MDA-N
[35] = test system: MOLT-4 leukemia
[36] = test system: NCI-H226 lung
[37] = test system: NCI-H23 lung
[38] = test system: NCI-H460 lung
[39] = test system: NCI-H522 lung
[40] = test system: OVCAR-3 ovarian
[41] = test system: OVCAR-4 ovarian
[42] = test system: OVCAR-5 ovarian
[43] = test system: PC-3 prostate
[44] = test system: RPMI-8226 leukemia
[45] = test system: RXF 393 renal
[46] = test system: SF-268 CNS
[47] = test system: SF-295 CNS
[48] = test system: SF-539 CNS
[49] = test system: SK-MEL-2 melanoma
[50] = test system: SK-MEL-28 melanoma
[51] = test system: SK-MEL-5 melanoma
[52] = test system: SK-OV-3 ovarian
[53] = test system: SN12C renal
[54] = test system: SNB-19 CNS
[55] = test system: SNB-75 CNS
[56] = test system: SNB-78 CNS
[57] = test system: SR leukemia
[58] = test system: SW-620 colon
[59] = test system: T-47D breast
[60] = test system: TK-10 renal
[61] = test system: U251 CNS
[62] = test system: UACC-257 melanoma
[63] = test system: UACC-62 melanoma
[64] = test system: UO-31 renal
[65] = test system: XF 498 CNS

With C=C1C(=O)OC2C1CCC(C)C1C=CC(=O)C12C (stereo not given) the TGI [1] was 4.19 µM, the TGI [2] was 26.7 µM and the TGI [3] was 41.9 µM. For the same compound, the TGI [4] was 3.25 µM, the TGI [5] was 3.46 µM and the TGI [6] was 6.75 µM. The TGI [7] was 8.54 µM, the TGI [8] was 5.74 µM and the TGI [9] was 4.19 µM. For the same compound, the TGI [10] was 23.5 µM, the TGI [11] was 7.36 µM and the TGI [12] was 25.2 µM. For the same compound, the TGI [13] was 26.6 µM, the TGI [14] was 3.91 µM and the TGI [15] was 4.11 µM. For the same compound, the TGI [16] was 4.85 µM, the TGI [17] was 20.7 µM and the TGI [18] was 41.1 µM. The TGI [19] was 13.3 µM, the TGI [20] was 15.4 µM and the TGI [21] was 4.53 µM. It also gave a TGI [22] of 19.4 µM, a TGI [23] of 11.3 µM and a TGI [24] of 5.96 µM. For the same compound, the TGI [25] was 14.6 µM, the TGI [26] was 5.25 µM and the TGI [27] was 3.35 µM. For the same compound, the TGI [28] was 4.85 µM, the TGI [29] was 14.4 µM and the TGI [30] was 7.47 µM. It also gave a TGI [31] of 16.5 µM, a TGI [32] of 4.83 µM and a TGI [33] of 3.34 µM. The TGI [34] was 3.88 µM, the TGI [35] was 10.4 µM and the TGI [36] was 13 µM. For the same compound, the TGI [37] was 10.2 µM, the TGI [38] was 18.9 µM and the TGI [39] was 2.39 µM. For the same compound, the TGI [40] was 3.37 µM, the TGI [41] was 16.6 µM and the TGI [42] was 13.8 µM. It also gave a TGI [43] of 17.3 µM, a TGI [44] greater than 25.3 µM and a TGI [45] of 4.39 µM. It also gave a TGI [46] of 39.5 µM, a TGI [47] of 18.1 µM and a TGI [48] of 8.33 µM. For the same compound, the TGI [49] was 17.5 µM, the TGI [50] was 4.93 µM and the TGI [51] was 12 µM. The TGI [52] was 98.8 µM, the TGI [53] was 13.5 µM and the TGI [54] was 46.1 µM. The TGI [55] was 26.8 µM, the TGI [56] was 23.3 µM and the TGI [57] was 9.73 µM. It also gave a TGI [58] of 4.68 µM, a TGI [59] of 4.88 µM and a TGI [60] of 10.6 µM. It also gave a TGI [61] of 29.5 µM, a TGI [62] of 4.61 µM and a TGI [63] of 4.11 µM. For the same compound, the TGI [64] was 9.26 µM and the TGI [65] was 13.4 µM.
